Common to all, as to assay: NCI-60 cell line screen, 48 h
The subject of assay [1] is ACHN renal.
Assay [2] concerns HCT-15 colon.
Assay [3] has as its system MDA-MB-231 breast.
The subject of assay [4] is NCI-H226 lung.
In assay [5] the test system is NCI-H23 lung.
For assay [6], the system named is NCI/ADR-RES ovarian.
The subject of assay [7] is SK-MEL-28 melanoma.
In assay [8] the test system is SK-OV-3 ovarian.
Assay [9] relates to SNB-75 CNS.
For assay [10], the system named is UO-31 renal.

Here are results for seven compounds from PubChem BioAssay (NCI).

Each structure is given as a SMILES string. Where “and” joins values, the source holds several entries; their conditions need not be identical. Identical values can stand only once.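 The compound was tested at five concentrations on cells cultured in 96-well plates, with a 48-hour exposure period. GI50 = concentration required for 50% inhibition of growth. Definition used: TGI = concentration required for complete inhibition of growth.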

As to `CNc1cc(-c2cccc(OC(F)(F)F)c2)nc2ccc(N3CCCC3)cc12`, the GI50 in assay [1] was 1610 nM and 1630 nM and 1740 nM; in [2] it was 860 nM and 1160 nM and 1300 nM; in assay [3], 1720 nM and 1700 nM and 1460 nM; in [4] it was 2490 nM and 1880 nM; in [5] it was 1800 nM and 1940 nM and 1740 nM; in assay [6], 1780 nM and 1890 nM and 1600 nM. Further, the GI50 in [7] was 1640 nM and 1780 nM and 1670 nM; in [8], 1660 nM and 1670 nM and 1740 nM; in [9] it was 1700 nM and 1480 nM; in assay [10], 1360 nM and 1320 nM and 1420 nM. Moreover, the TGI in assay [1] is 2960 nM and 2980 nM and 3120 nM; in assay [2], 2350 nM and 2540 nM and 2800 nM; in assay [3] it was 3230 nM and 3140 nM and 2950 nM; in assay [4], 4580 nM and 3770 nM; in [5], 3670 nM and 3620 nM and 3320 nM; in assay [6], 3870 nM and 3790 nM and 3190 nM. Moreover, the TGI is 3030 nM and 3200 nM and 3060 nM in assay [7]; 3040 nM and 3030 nM and 3140 nM in assay [8]; 3120 nM and 2930 nM in [9]; 2670 nM and 2610 nM and 2740 nM in assay [10].

On to `Oc1[nH]c2ccccc2c1C=Nc1ccc(-n2cncn2)cc1`, for which the GI50 in [1] is 18300 nM; in [2], 18800 nM; in assay [3], over 25000 nM; in [4], 8340 nM; in assay [5], over 21900 nM; in assay [6], 15700 nM. Moreover, the GI50 in [7] was over 25000 nM; in [8], over 15700 nM; in assay [9], over 25000 nM; in [10] it was over 17700 nM. The TGI in [1] was over 25000 nM; in [2], over 25000 nM; in assay [3], over 25000 nM; in assay [4], over 22100 nM; in [5], over 25000 nM; in assay [6] it was over 25000 nM. In addition, the TGI in [7], in assay [8], in assay [9] and in assay [10] was over 25000 nM throughout.

Turning to `CCc1c(C)c2cc(-n3c(-c4ccc(OC)cc4)csc3=N)c(O)c(C)c2oc1=O`, the GI50 in [1] is 1530 nM; in assay [2] it was 1210 nM; in assay [3], 1520 nM; in assay [4], 2130 nM; in assay [5] it was 1510 nM; in [6], 1620 nM. Also, the GI50 in assay [7] is 1550 nM; in [8], 2850 nM; in assay [9] it was 1670 nM; in [10], 687 nM. The TGI in [1] is 3600 nM; in assay [2], 3950 nM; in assay [3], 6390 nM; in assay [4], 9730 nM; in assay [5], 5160 nM; in assay [6], 10600 nM. For the same compound, the TGI was 4420 nM in [7], 34400 nM in assay [8], over 100000 nM in assay [9] and 3650 nM in assay [10].

Turning to `COc1cc(-c2ccc[nH]2)[nH]c1/C=C1\N=C(C)C(CC(=O)OCC(C)(C)C)=C1C`, the GI50 was 287 nM in [1]; 211 nM in assay [2]; 104 nM in assay [3]; 176 nM in assay [4]; 441 nM in assay [5]; 357 nM in assay [6]. Besides, the GI50 in assay [7] is 305 nM; in assay [8], 442 nM; in assay [9], 228 nM; in assay [10] it was 173 nM. Moreover, the TGI in assay [1] came out at 965 nM; in [2], 1120 nM; in assay [3], 1530 nM; in assay [4], 736 nM; in assay [5], 2220 nM; in assay [6], 1460 nM. The TGI in assay [7] came out at 1340 nM; in [8], 2020 nM; in assay [9] it was 903 nM; in assay [10], 382 nM.

As for `C=C(C)C(=O)Nc1ccc(-c2c(-c3ccc(Oc4nccc(C)n4)c(F)c3)c3c(N)ncnc3n2C)cc1`, the GI50 in assay [1] was 3810 nM; in assay [2], 3110 nM; in assay [3], 3570 nM; in [4], 812 nM; in assay [5] it was 4270 nM; in [6] it was 10100 nM. Besides, the GI50 in assay [7] is 4380 nM; in assay [8] it was 14700 nM; in [9], 1180 nM; in assay [10] it was 1180 nM. The TGI in [1] turned out to be 20200 nM; in assay [2], 13500 nM; in assay [3], 22200 nM; in [4] it was 7460 nM; in [5], 18400 nM; in assay [6], 31000 nM. The TGI was 17600 nM in assay [7], 69200 nM in assay [8], 7320 nM in [9] and 2980 nM in assay [10].

`COc1ccc2c(c1)/C(=N/OC(C)=O)c1c-2c(OC)nc2ccccc12`: the GI50 in assay [1] was 86400 nM; in assay [2], over 100000 nM; in assay [3], 35000 nM; in assay [4], over 100000 nM; in assay [5], over 100000 nM; in [6], over 100000 nM. For the same compound, the GI50 was over 100000 nM in assay [7], 48100 nM in assay [8], 18000 nM in assay [9] and over 100000 nM in assay [10]. The TGI in assay [1], in [2], in assay [3], in assay [4], in [5] and in assay [6] was over 100000 nM throughout. The TGI in assay [7], in assay [8], in assay [9] and in [10] was over 100000 nM throughout.

Regarding `COC(=O)c1cc(-c2ccc(S(C)(=O)=O)cc2)[nH]c1N/N=C/c1c(Cl)cccc1Cl`, the GI50 in assay [1] is 2000 nM; in [2], 463 nM; in assay [3], 1730 nM; in assay [4], 1020 nM; in assay [5], 750 nM; in assay [6], 343 nM. The GI50 in assay [7] was 893 nM; in assay [8], 852 nM; in [9] it was 298 nM; in assay [10], 490 nM. The TGI is over 100000 nM in assay [1]; over 100000 nM in [2]; over 100000 nM in assay [3]; over 22900 nM in assay [4]; over 93700 nM in assay [5]; 11500 nM in assay [6]. The TGI is over 58200 nM in assay [7], 28600 nM in [8], 1930 nM in assay [9] and 37500 nM in [10].
